Measurements from paper PMC9287224 (Clinical Pharmacokinetics, 2022).
Where a name gives a salt, the structure may show the parent alone.

How the values were obtained:
[1] = Galactose elimination capacity; format: in vivo, human; conditions: patients with Child C cirrhosis
[2] = monkeys; cited from earlier work
[3] = for reduction of the elimination rate: patients with Child C cirrhosis vs control subjects; for decrease in Cl/F: Child C cirrhosis compared with control subjects; for decrease of the elimination rate by liver cirrhosis: liver cirrhosis (Child class not stated) vs control subjects
CYP2C9 = CYP2C9 (Homo sapiens, UniProt P11712); conditions: patients with Child C cirrhosis vs control subjects
CYP2C9, sequence (P11712 whole entry): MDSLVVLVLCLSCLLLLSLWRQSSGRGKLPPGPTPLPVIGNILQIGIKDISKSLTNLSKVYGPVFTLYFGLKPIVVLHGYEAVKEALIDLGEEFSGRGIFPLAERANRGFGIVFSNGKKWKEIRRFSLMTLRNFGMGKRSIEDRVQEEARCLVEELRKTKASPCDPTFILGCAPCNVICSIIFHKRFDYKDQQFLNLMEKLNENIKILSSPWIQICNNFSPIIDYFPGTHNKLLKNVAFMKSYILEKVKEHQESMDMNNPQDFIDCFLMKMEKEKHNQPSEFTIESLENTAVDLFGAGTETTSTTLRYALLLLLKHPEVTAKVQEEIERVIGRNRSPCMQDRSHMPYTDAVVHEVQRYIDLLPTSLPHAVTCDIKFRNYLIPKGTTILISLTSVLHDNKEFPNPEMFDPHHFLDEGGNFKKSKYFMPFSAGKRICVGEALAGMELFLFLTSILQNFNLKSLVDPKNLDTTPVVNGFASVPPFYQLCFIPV

For O=C[C@H](O)[C@@H](O)[C@@H](O)[C@H](O)CO [Galactose, galactose], the “galactose elimination capacity as % of controls (dropping to)” value [1] was 18%.

For O=C1Nc2ccc(Cl)cc2[C@@](C#CC2CC2)(C(F)(F)F)O1 [Efavirenz, efavirenz], the bioavailability [2] is given as 42% and the “reduction of the elimination rate” value [3] is given as 30%.

In the case of Cc1ncc2n1-c1ccc(Cl)cc1C(c1ccccc1F)=NC2 [Midazolam, midazolam], the “decrease in Cl/F” value [3] is reported as 84%, the “ratio of the bioavailabilities Fcirrhosis Child C/Fcontrols” value ([3]; assuming equal volume of distribution in cirrhosis and controls) is reported as 1.73 and the clearance ([3]; human, in vivo, clearance corrected for bioavailability, controls) is reported as about 1330 mL/min.

For CC(C(=O)O)c1ccc(-c2ccc(O)cc2)c(F)c1 (stereo not shown) [4-Hydroxyflurbiprofen, 4-hydroxyflurbiprofen], the “increase in the AUC0–24h by liver cirrhosis” value ([3]; liver cirrhosis vs control subjects (Child class not stated)) was 58%.

For CC(C(=O)O)c1ccc(-c2ccccc2)c(F)c1 (stereo not shown) [Flurbiprofen, flurbiprofen], the “change of metabolic ratio 4-hydroxyflurbiprofen/flurbiprofen” value (CYP2C9) was “remained unchanged”.

With Cn1c(=O)c2c(ncn2C)n(C)c1=O [Caffeine, caffeine] the “reduction of the elimination rate” value [3] was 51%.

In the case of COc1ccc2[nH]c([S+]([O-])Cc3ncc(C)c(OC)c3C)nc2c1 (stereo not shown) [Omeprazole, omeprazole], the “decrease in Cl/F” value [3] is reported as 91% and the “decrease of the elimination rate by liver cirrhosis” value [3] is reported as 75%.

In the case of COCCc1ccc(OCC(O)CNC(C)C)cc1 (stereo not shown) [Metoprolol, metoprolol tartrate], the “decrease of the elimination rate by liver cirrhosis” value [3] is reported as 37% and the “Cl/F as % of control subjects (dropped to)” value ([3]; patients with Child C cirrhosis) is reported as 22%.
